Measurements published in patent US4622386A, “[1,7-di-alanine]calcitonin” (Armour Pharmaceutical Company, priority 1985, dated 1986).

Legend:
[1] = test system: serum calcium concentration; conditions: standard used in the rat serum calcium assay; cited from earlier work
[2] = test system: serum calcium concentration; assay: Biological assay of calcitonin analogs in vivo: reduction of serum calcium concentration, 2×2 parallel line assay; conditions: rats, subcutaneous injection, blood withdrawn 1 hour later
Procedure: Biological Assay Of Calcitonin Analogs In Vivo
The biological potency of [Di-Ala^1,7 ]salmon calcitonin was determined by comparing the reduction of serum calcium concentration which followed administration by graded doses of [Di-Ala^1,7 ]SCT and synthetic salmon calcitonin standard. Rats were divided into four groups of seven animals, and each group was assigned at random to a dose of standard or test solution. Low and high doses were chosen from the linear portion of the dose-responsive curve. For the salmon calcitonin standard, the values were 0.7 and 2.1 mcg. peptide/100 g. body weight (BW). This dose approximates 3 and 9 MU/100 g. BW. Peptides were given by subcutaneous injection (0.2 ml/100 g. BW) and blood was withdrawn 1 hour later for serum calcium determination. Sera are processed and analyzed within two hours of collection. […]. Results were analyzed by a 2×2 parallel line assay [Gaddum, J. H., J. Pharm. Pharmacol., 6, 345 (1953)]. The standard salmon calcitonin used was independently determined to contain greater than 4,000 IU/mg. [Di-Ala^1,7 ]SCT assayed at 5550 IU/mg.

Substance: Salmon calcitonin [standard salmon calcitonin]
- potency of the standard salmon calcitonin, independently determined [1]: greater than 4,000 IU/mg

Substance: [1,7-Di-Alanine)]salmon calcitonin [[Di-Ala^1,7]SCT]
- biological potency (reduction of serum calcium concentration vs synthetic salmon calcitonin standard) [2]: 5550 IU/mg
